Values quoted from earlier work in patent US11331271B2, “Buccal, sublingual and intranasal delivery of fospropofol” (The Johns Hopkins University, priority 2016, dated 2022).

Legend:
[1] = IV lipid emulsion, humans; cited from earlier work
patients = conditions: anesthetic induction doses; cited from earlier work

CC(C)c1cccc(C(C)C)c1O [propofol, 2,6-diisopropylphenol]
extraction by the liver [1]: 80%
patients with respiratory consequences (reduction in tidal volume, apnea) (patients): up to 83%
